What all share (assay type): cell-based
Experiment [1] concerns the target T1, Glucocorticoid receptor (Rattus norvegicus, UniProt P06536).
T1 sequence (P06536 whole entry): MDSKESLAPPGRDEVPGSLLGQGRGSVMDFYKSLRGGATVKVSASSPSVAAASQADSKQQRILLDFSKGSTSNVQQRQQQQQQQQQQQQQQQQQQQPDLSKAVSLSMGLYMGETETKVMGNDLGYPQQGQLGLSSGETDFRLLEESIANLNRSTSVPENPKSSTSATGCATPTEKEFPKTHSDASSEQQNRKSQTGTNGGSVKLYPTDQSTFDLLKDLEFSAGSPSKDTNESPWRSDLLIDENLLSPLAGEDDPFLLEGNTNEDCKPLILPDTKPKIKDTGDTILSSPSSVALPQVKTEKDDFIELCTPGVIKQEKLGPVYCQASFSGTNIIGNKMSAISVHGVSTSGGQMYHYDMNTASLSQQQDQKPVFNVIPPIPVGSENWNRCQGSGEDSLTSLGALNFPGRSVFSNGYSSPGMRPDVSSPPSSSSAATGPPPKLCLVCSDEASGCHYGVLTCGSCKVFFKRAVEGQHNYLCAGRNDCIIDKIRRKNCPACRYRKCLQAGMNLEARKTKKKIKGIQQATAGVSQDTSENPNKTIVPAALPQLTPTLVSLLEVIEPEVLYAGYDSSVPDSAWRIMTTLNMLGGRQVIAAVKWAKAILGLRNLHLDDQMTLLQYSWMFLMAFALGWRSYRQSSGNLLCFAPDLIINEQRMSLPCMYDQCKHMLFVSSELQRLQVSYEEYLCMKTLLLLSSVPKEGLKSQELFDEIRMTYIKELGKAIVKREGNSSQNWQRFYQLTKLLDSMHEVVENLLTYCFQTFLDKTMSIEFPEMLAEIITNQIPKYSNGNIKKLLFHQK
Put plainly: Agonist activity at glucocorticoid receptor in rat INS-1 832/13 cells transfected with CCL2-promoter luciferase plasmid construct assessed as reduction in IL-1 beta induced inflammation by luciferase reporter gene assay.

The target in experiment [2] is T1, Glucocorticoid receptor. The experiment can be described thus: Agonist activity at glucocorticoid receptor in rat INS-1 832/13 cells transfected with 3XGRE-promoter luciferase plasmid construct assessed as induction of receptor transactivation by luciferase reporter gene assay. For orientation: In a reporter assay the amount or activity of a reporter protein is the signal.

Experiment [3] addresses T2, Glucocorticoid receptor (Rattus norvegicus) (UniProt P06536).
T2 sequence (whole entry): T1 sequence (P06536 whole entry)
The experiment can be described thus: Agonist activity at glucocorticoid receptor in rat INS-1 832/13 cells assessed as inhibition of glucose-stimulated insulin secretion at 100 nM incubated for 18 hrs by ELISA.

Active and inactive are the calls of the source. The calls are words filed in the database; no cut-off is given here.

The IC50 is the concentration needed to halve the response being measured. As a reminder, the EC50 is the concentration at which the effect is half-maximal. Take `CC(C)(O)[C@H]1CCCC2=Cc3c(cnn3-c3ccc(F)cc3)C[C@@]21C`: the IC50 on Glucocorticoid receptor [1] is 39.8 nM. In addition, at Glucocorticoid receptor [2], the half-maximal effective concentration (EC50) was 63.1 nM. In addition, the inhibition entry in experiment [3] is “inactive”.
Turning to `Cc1ccc(-n2ncc3c2C=C2CCC[C@H](C(C)(O)c4ccc(F)cc4)[C@@]2(C)C3)cc1` (single isomer, unassigned), the IC50 on Glucocorticoid receptor [1] was 631 nM. Further, the EC50 at Glucocorticoid receptor [2] was 316 nM.
Regarding `COc1cc([C@@](C)(O)[C@H]2CCCC3=Cc4c(cnn4-c4ccc(F)cc4)C[C@@]32C)cc(F)c1F`, at Glucocorticoid receptor [1], the IC50 was 2 nM. In addition, the EC50 at Glucocorticoid receptor [2] is 6.31 nM.
For `Cc1ccc(-n2ncc3c2C=C2CCC[C@H]([C@@H](O)c4ccsc4)[C@@]2(C)C3)cc1` the same measures were 39.8 nM and 10000 nM.
As to `COc1ccc(-n2ncc3c2C=C2CCC[C@H](C(C)(O)c4ccsc4)[C@@]2(C)C3)cc1` (single isomer, unassigned), at Glucocorticoid receptor [1], the IC50 is 1580 nM. Moreover, the EC50 at Glucocorticoid receptor [2] is 10000 nM.
Turning to `Cc1ccc(-n2ncc3c2C=C2CCC[C@H](C(C)(O)c4ccsc4)[C@@]2(C)C3)cc1` (single isomer, unassigned), the IC50 at Glucocorticoid receptor [1] is 100 nM. Moreover, the EC50 on Glucocorticoid receptor [2] is 1580 nM.
For `COc1ccc(-n2ncc3c2C=C2CCC[C@H](C(C)(O)c4ccccc4)[C@@]2(C)C3)cc1` (single isomer, unassigned), in that order: 501 nM and 5010 nM.
For `COc1ccc(-n2ncc3c2C=C2CCC[C@H]([C@@H](O)c4ccsc4)[C@@]2(C)C3)cc1`, in that order: 501 nM and 10000 nM.
Take `C[C@]12Cc3cnn(-c4ccc(F)cc4)c3C=C1CCC[C@@H]2[C@@H](O)c1ccsc1`: the IC50 on Glucocorticoid receptor [1] is 5.01 nM. The EC50 on Glucocorticoid receptor [2] is 126 nM.
On to `Cc1ccc(-n2ncc3c2C=C2CCC[C@H]([C@@H](O)c4ccc(F)cc4)[C@@]2(C)C3)cc1`, for which, on Glucocorticoid receptor [1], the IC50 is 251 nM. Moreover, at Glucocorticoid receptor [2], the EC50 is 31600 nM.
As to `Cc1ccc(-n2ncc3c2C=C2CCC[C@H](C(C)(C)O)[C@@]2(C)C3)cc1`, the IC50 at Glucocorticoid receptor [1] was 63.1 nM. Further, the EC50 on Glucocorticoid receptor [2] is 0.398 nM.
For the compound `COc1cc([C@H](O)[C@H]2CCCC3=Cc4c(cnn4-c4ccc(F)cc4)C[C@@]32C)cc(F)c1F`, the IC50 on Glucocorticoid receptor [1] was 15.8 nM. For the same compound, on Glucocorticoid receptor [2], the EC50 was 63.1 nM.
As to `C[C@]12Cc3cnn(-c4ccc(F)cc4)c3C=C1CCC[C@@H]2[C@](C)(O)c1ccccc1`, the IC50 at Glucocorticoid receptor [1] is 7.94 nM. For the same compound, the EC50 on Glucocorticoid receptor [2] is 3.98 nM. For the same compound, in experiment [3] (filed as agonist), the inhibition result is “Active”.
As for `Cc1ccc(-n2ncc3c2C=C2CCC[C@H](C(C)(O)c4ccccc4)[C@@]2(C)C3)cc1` (single isomer, unassigned), the IC50 on Glucocorticoid receptor [1] is 31.6 nM. At Glucocorticoid receptor [2], the EC50 was 1260 nM.
`C[C@]12Cc3cnn(-c4ccc(F)cc4)c3C=C1CCC[C@@H]2[C@@H](O)CC#N`: the IC50 at Glucocorticoid receptor [1] is 1580 nM. Further, the EC50 on Glucocorticoid receptor [2] was 2510 nM.
`COc1ccc(-n2ncc3c2C=C2CCC[C@H](C(C)(O)c4cc(F)c(F)c(OC)c4)[C@@]2(C)C3)cc1` (single isomer, unassigned): the IC50 at Glucocorticoid receptor [1] was 1260 nM. Further, the EC50 on Glucocorticoid receptor [2] was 10000 nM.
Regarding `COc1ccc(-n2ncc3c2C=C2CCC[C@H](C(C)(C)O)[C@@]2(C)C3)cc1`, the IC50 on Glucocorticoid receptor [1] was 2510 nM. On Glucocorticoid receptor [2], the EC50 is 79.4 nM.
`Cc1ccc(-n2ncc3c2C=C2CCC[C@H]([C@H](C)O)[C@@]2(C)C3)cc1`: the IC50 at Glucocorticoid receptor [1] was 0.2 nM. Further, on Glucocorticoid receptor [2], the EC50 is 1580 nM.
For `C[C@]12Cc3cnn(-c4ccc(F)cc4)c3C=C1CCC[C@@H]2[C@](C)(O)c1ccc(F)cc1`, in that order: 5.01 nM and 15.8 nM.
Consider `COc1ccc(-n2ncc3c2C=C2CCC[C@H]([C@@H](O)c4ccc(F)cc4)[C@@]2(C)C3)cc1`, for which the IC50 at Glucocorticoid receptor [1] is 79.4 nM. Also, on Glucocorticoid receptor [2], the EC50 was 15800 nM.
For `COc1ccc(-n2ncc3c2C=C2CCC[C@H]([C@H](C)O)[C@@]2(C)C3)cc1`, the IC50 on Glucocorticoid receptor [1] was 0.158 nM. In addition, the EC50 on Glucocorticoid receptor [2] is 251 nM.
With `COc1ccc(-n2ncc3c2C=C2CCC[C@H](C(C)(O)c4ccc(F)cc4)[C@@]2(C)C3)cc1` (single isomer, unassigned), at Glucocorticoid receptor [1], the IC50 is 251 nM. In addition, the EC50 at Glucocorticoid receptor [2] is 126 nM.
`C[C@H](O)[C@H]1CCCC2=Cc3c(cnn3-c3ccc(F)cc3)C[C@@]21C`: the IC50 at Glucocorticoid receptor [1] is 6.31 nM. For the same compound, on Glucocorticoid receptor [2], the EC50 is 63.1 nM. Moreover, the inhibition result in experiment [3] is “inactive”.
With `Cc1ccc(-n2ncc3c2C=C2CCC[C@H]([C@@H](O)c4ccccc4)[C@@]2(C)C3)cc1`, the IC50 on Glucocorticoid receptor [1] is 398 nM. Also, the EC50 on Glucocorticoid receptor [2] was 10000 nM.
As for `COc1cc([C@H](O)[C@H]2CCCC3=Cc4c(cnn4-c4ccc(C)cc4)C[C@@]32C)cc(F)c1F`, the IC50 at Glucocorticoid receptor [1] is 158 nM. Besides, the EC50 at Glucocorticoid receptor [2] is 100000 nM.
For `CC(C)(C)[C@H](O)[C@H]1CCCC2=Cc3c(cnn3-c3ccc(F)cc3)C[C@@]21C`, at Glucocorticoid receptor [1], the IC50 was 0.251 nM. Also, the EC50 at Glucocorticoid receptor [2] was 794 nM.
As to `COc1ccc(-n2ncc3c2C=C2CCC[C@H]([C@@H](O)c4ccccc4)[C@@]2(C)C3)cc1`, on Glucocorticoid receptor [1], the IC50 was 1260 nM. Moreover, the EC50 at Glucocorticoid receptor [2] was 10000 nM.
Regarding `C[C@]12Cc3cnn(-c4ccc(F)cc4)c3C=C1CCC[C@@H]2[C@@H](O)c1ccccc1`, the IC50 on Glucocorticoid receptor [1] is 39.8 nM. Moreover, the EC50 at Glucocorticoid receptor [2] was 100 nM. Also, in experiment [3], the inhibition result was “inactive”.

For the origin of these results see ChEMBL document CHEMBL4837265 (ACS Med Chem Lett, 2021).
